Test results from ChEMBL document CHEMBL3992533, “α-Ketothioamide Derivatives: A Promising Tool to Interrogate Phosphoglycerate Dehydrogenase (PHGDH)” (J Med Chem, 2017).
Activity calls are given as the source filed them. The calls are words filed in the database; no cut-off is given here.

Tests used:
[1] = target: T1, D-3-phosphoglycerate dehydrogenase (Homo sapiens) (UniProt O43175); assay: Inhibition of recombinant human C-terminal His-tagged PHGDH (1 to 533 residues) expressed in Escherichia coli assessed as reduction in NADH formation at 100 uM using 3-phosphoglycerate as substrate preincubated measured for 7 mins in presence of NAD+ by spectrophotometric method relative to control
T1 sequence (whole entry): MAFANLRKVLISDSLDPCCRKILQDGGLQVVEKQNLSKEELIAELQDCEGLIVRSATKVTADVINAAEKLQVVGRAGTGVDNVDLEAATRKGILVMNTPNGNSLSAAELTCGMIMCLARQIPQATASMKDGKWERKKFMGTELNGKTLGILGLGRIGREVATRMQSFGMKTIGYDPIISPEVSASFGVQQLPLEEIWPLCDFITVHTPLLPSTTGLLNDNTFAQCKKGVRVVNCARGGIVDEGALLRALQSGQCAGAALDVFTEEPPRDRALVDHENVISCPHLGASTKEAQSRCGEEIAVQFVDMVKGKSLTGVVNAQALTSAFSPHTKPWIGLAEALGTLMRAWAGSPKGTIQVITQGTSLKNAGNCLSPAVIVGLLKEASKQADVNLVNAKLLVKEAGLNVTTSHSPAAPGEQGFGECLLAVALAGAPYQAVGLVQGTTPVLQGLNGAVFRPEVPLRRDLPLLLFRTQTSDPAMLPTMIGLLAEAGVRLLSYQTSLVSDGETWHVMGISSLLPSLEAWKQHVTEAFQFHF

[2] = target: T2, D-3-phosphoglycerate dehydrogenase (Homo sapiens, UniProt O43175); assay: Inhibition of recombinant human C-terminal His-tagged PHGDH (1 to 533 residues) expressed in Escherichia coli assessed as reduction in NADH formation using 3-phosphoglycerate as substrate in presence of NAD+ by resorufin fluorescence based PSAT1/diaphorase/PSPH coupled enzyme assay
T2 sequence (O43175 whole entry): T1 sequence (whole entry)

HL-60 = assay: Cytotoxicity against PHGDH knockout human HL60 cells assessed as reduction in cell viability after 5 days by presto blue assay; type: functional, cell-based; conditions: HL-60, 120 h
[3] = target: T1, D-3-phosphoglycerate dehydrogenase (Homo sapiens); assay: Ratio of IC50 for inhibition of PHGDH in human HL60 cells assessed as reduction in cell viability in serine repleted medium to IC50 for inhibition of PHGDH in human HL60 cells assessed as reduction in cell viability in serine depleted medium; type: cell-based
[4] = target: T1, D-3-phosphoglycerate dehydrogenase (Homo sapiens); assay: Ratio of IC50 for inhibition of PHGDH in human SiHa cells assessed as reduction in cell viability in serine repleted medium to IC50 for inhibition of PHGDH in human SiHa cells assessed as reduction in cell viability in serine depleted medium; type: cell-based
MDA-MB-231 = assay: Cytotoxicity against PHGDH deficient human MDA-MB-231 cells assessed as reduction in cell viability after 5 days by presto blue assay; type: functional, cell-based; conditions: MDA-MB-231, 120 h
[5] = target: T1, D-3-phosphoglycerate dehydrogenase (Homo sapiens); conditions: 160 uM
[6] = target: T2, D-3-phosphoglycerate dehydrogenase; assay: (§1) Non-competitive inhibition of recombinant human C-terminal His-tagged PHGDH (1 to 533 residues) expressed in Escherichia coli assessed as reduction in NADH formation preincubated for 30 mins followed by varying levels of 3-phosphoglycerate substrate addition in presence of constant NAD+ concentration by resorufin fluorescence based PSAT1/diaphorase/PSPH coupled enzyme assay
[7] = target: T2, D-3-phosphoglycerate dehydrogenase; assay: as §1, with “constant concentration” for “varying levels”, “varying levels of” for “constant”, “NAD+” for “NAD+ concentration”

Molecule `COc1ccc(S(=O)(=O)N2CCNCC2)cc1` has an inhibition [1] of 35%.

With `O=C1C=CC(=O)N1c1ccccc1Cl` the inhibition [1] was 78%.

Work on `FC(F)(F)c1cc(NC(=S)N2CCN(Cc3ccccc3)CC2)cc(C(F)(F)F)c1` yielded an inhibition [1] of 80%.

With `O=C(N1CCN(c2ccccc2)CC1)n1nnc2ccccc21` the inhibition [1] was 37%.

`CCCCCN1C(=O)NC(c2ccccc2)(c2ccccc2)C1=O` gave an inhibition [1] of 25%.

`Cc1cc(C)nc(NC(=O)c2ccc([N+](=O)[O-])cc2)n1` gave an inhibition [1] of 13%.

`O=C(NC(c1ccccc1)c1ccccc1)c1ccc([N+](=O)[O-])cc1` showed an inhibition [1] of 54%.

For `O=C(C(=S)N1CCOCC1)c1cccc([N+](=O)[O-])c1`, the IC50 [2] was 88.1 µM.

In the case of `O=C(C(=S)N1CCOCC1)c1ccc([N+](=O)[O-])cc1`, the IC50 [2] is reported as 35.1 µM, the IC50 (HL-60) is reported as greater than 100 µM and the Ratio IC50 [3] is reported as 2.9. The Ratio IC50 [4] was 3 and the IC50 (MDA-MB-231) was greater than 100 µM.

Molecule `O=C(C(=S)N1CCOCC1)c1cccc(I)c1` has an IC50 [2] greater than 200 µM.

`O=C(C(=S)N1CCOCC1)c1ccc(Br)cc1` was tested, and the IC50 [2] was 131 µM, the IC50 (HL-60) was greater than 100 µM and the Ratio IC50 [3] was 2.2. It also gave a Ratio IC50 [4] of 2.6 and an IC50 (MDA-MB-231) greater than 100 µM.

For `O=C1C=CC(=O)c2ccccc21`, the inhibition [1] was 95%.

In the case of `O=C(C(=S)N1CCOCC1)c1ccc(Cl)cc1`, the IC50 [2] is reported as 8.7 µM, the IC50 (HL-60) is reported as greater than 100 µM and the Ratio IC50 [3] is reported as 3.3. The Ratio IC50 [4] was 3.2 and the IC50 (MDA-MB-231) was greater than 100 µM.

`O=C1C=CC(=O)C=C1` showed an inhibition [1] of 100%.

With `S=C(c1ccc(Cl)c(Cl)c1)N1CCOCC1` [(3,4-DICHLOROPHENYL)(MORPHOLINO)METHANETHIONE] the IC50 (HL-60) was greater than 100 µM, the inhibition [1] was 96% and the IC50 (MDA-MB-231) was greater than 100 µM.

With `c1ccc(C2CNCCO2)cc1` (configuration not stated) the inhibition [1] was 61%.

Molecule `O=C(C(=S)N1CCOCC1)c1cccc(Br)c1` has an IC50 [2] greater than 200 µM.

Molecule `O=C(C(=S)N1CCOCC1)c1cccc(Cl)c1` has an IC50 [2] greater than 200 µM, an IC50 (HL-60) greater than 100 µM and an IC50 (MDA-MB-231) greater than 100 µM.

Molecule `O=C(C(=S)N1CCOCC1)c1ccccc1F` has an IC50 [2] greater than 200 µM.

For `Nc1nc2c(s1)CCCC2`, the inhibition [1] was 46%.

`O=C(C(=S)N1CCOCC1)c1ccc(I)cc1` gave an IC50 [2] of 178 µM, an IC50 (HL-60) greater than 100 µM and a Ratio IC50 [3] of 2.8. It also gave a Ratio IC50 [4] of 2.8 and an IC50 (MDA-MB-231) greater than 100 µM.

`O=C(C(=S)N1CCOCC1)c1ccc(F)cc1` was tested, and the IC50 [2] was 68.9 µM, the IC50 (HL-60) was greater than 100 µM and the Ratio IC50 [3] was 1.5. The Ratio IC50 [4] was greater than 2.3 and the IC50 (MDA-MB-231) was greater than 100 µM.

For `O=C(C(=S)N1CCOCC1)c1ccccc1[N+](=O)[O-]`, the IC50 [2] was greater than 200 µM.

`O=C(C(=S)N1CCOCC1)c1ccc(-c2ccccc2)cc1` gave an IC50 [2] greater than 200 µM.

Work on `O=C(C(=S)N1CCOCC1)c1ccccc1Cl` yielded an IC50 [2] greater than 200 µM, an IC50 (HL-60) greater than 100 µM and an IC50 (MDA-MB-231) greater than 100 µM.

`O=C(C(=S)N1CCOCC1)c1cccc(F)c1` was tested, and the IC50 [2] was greater than 200 µM.

For `S=C(Nc1ccccc1)NC1CCCCC1`, the inhibition [1] was 28%.

`S=C(NC1CCCCC1)Sc1ccccc1` was tested, and the inhibition [1] was 51%.

Molecule `O=C(C(=S)N1CCOCC1)c1ccccc1Br` has an IC50 [2] of 161 µM.

In the case of `O=C(C(=S)N1CCOCC1)c1ccccc1`, the IC50 [2] is reported as 30.9 µM, the inhibition [5] is reported as “Active” and the Ki [6] is reported as 40 µM. For the same molecule, the IC50 (HL-60) was greater than 100 µM, the Ki [7] was 27 µM and the Ratio IC50 [4] was 9.1. The IC50 (MDA-MB-231) was greater than 100 µM.

With `O=C(Nc1ccccc1[N+](=O)[O-])c1ccc(Cl)cc1` the IC50 [2] was 75.2 µM, the IC50 (HL-60) was greater than 100 µM and the inhibition [1] was 59%. The IC50 (MDA-MB-231) was greater than 100 µM.

Molecule `O=C(C(=S)N1CCOCC1)c1ccccc1I` has an IC50 [2] greater than 200 µM.
